Assays:
cortisone conversion = test: Acute In Vivo Cortisone Conversion Assay; settings: male C57BL/6 mice, oral dose of 10 mg/kg, cortisone challenge after 16 hours, serum cortisol
Description: Acute In Vivo Cortisone Conversion Assay
In general, compounds are dosed orally into mice, the mice are challenged with a subcutaneous injection of cortisone at a set timepoint after compound injection, and the blood of each animal is collected some time later. Separated serum is then isolated and analyzed for levels of cortisone and cortisol by LC-MS/MS, followed by calculation of mean cortisol and percent inhibition of each dosing group. Specifically, male C57BL/6 mice are obtained from Harlan Sprague Dawley at average weight of 25 grams. Exact weights are taken upon arrival and the mice randomized into groups of similar weights. Compounds are prepared in 1% w-w HEC, 0.25% w-w polysorbate 80, 0.05% w-w Dow Corning antifoam #1510-US at various doses based on assumed average weight of 25 grams. Compounds are dosed orally, 200 μl per animal, followed by a subcutaneous dose, 200 μl per animal, of 30 mg/kg cortisone at 1 to 24 hours post compound dose. At 10 minutes post cortisone challenge, each animal is euthanized for 1 minute in a CO2 chamber, followed by blood collection via cardiac puncture into serum separator tubes. Once fully clotted, tubes are spun at 2500×g, 4° C. for 15 minutes, the serum transferred to wells of 96-well plates (Corning Inc, Costar #4410, cluster tubes, 1.2 ml, polypropylene), and the plates are frozen at −20° C. until analysis by LC-MS/MS. […]

11β-HSD1 = molecular target: T1, 11β-HSD1 (Homo sapiens, UniProt P28845); test: Human Aortic Smooth Muscle Cell Assay (cortisone to cortisol conversion); assay type: cell-based; settings: primary human aortic smooth muscle cells (AoSMC), hTNFα induced, cortisol immunoassay
T1 construct: assay medium containing 12 ng/mL hTNFα to induce expression of 11β-HSD1; endogenous in cells; host or cells: primary human aortic smooth muscle cells (AoSMC), induced with hTNFα
T1 sequence (P28845 whole entry): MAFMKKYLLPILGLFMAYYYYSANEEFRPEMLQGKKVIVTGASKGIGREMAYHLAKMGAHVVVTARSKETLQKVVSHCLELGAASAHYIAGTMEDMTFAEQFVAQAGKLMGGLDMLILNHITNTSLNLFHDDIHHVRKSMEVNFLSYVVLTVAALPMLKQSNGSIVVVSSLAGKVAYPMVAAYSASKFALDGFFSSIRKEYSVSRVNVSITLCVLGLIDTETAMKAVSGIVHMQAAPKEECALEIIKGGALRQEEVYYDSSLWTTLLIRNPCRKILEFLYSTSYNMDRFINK
Description: Human Aortic Smooth Muscle Cell Assay
Primary human aortic smooth muscle cells (AoSMC) are cultured in 5% FBS growth medium to a passage number of 6, then pelleted by centrifugation and resuspended at a density of 9×10^4 cells/mL in 0.5% FBS assay medium containing 12 ng/mL hTNFα to induce expression of 11β-HSD1. Cells are seeded into 96-well tissue culture assay plates at 100 μL/well (9×10^3 cells/well) and incubated for 48 hours at 37° C., 5% CO2. Following induction, cells are incubated for 4 hours at 37° C., 5% CO2 in assay medium containing test compounds then treated with 10 μL/well of 10 μM cortisone solubilized in assay medium, and incubated for 16 hours at 37° C., 5% CO2. Medium from each well is transferred to a plate for subsequent analysis of cortisol using a competitive fluorescence resonance time resolved immunoassay. In solution, an allophycocyanin (APC)-cortisol conjugate and free cortisol analyte compete for binding to a mouse anti-cortisol antibody/Europium (Eu)-anti mouse IgG complex. Higher levels of free cortisol result in diminishing energy transfer from the Europium-IgG to the APC-cortisol complex resulting in less APC fluorescence. Fluorescent intensities for Europium and APC are measured using a LJL Analyst AD. Europium and APC excitation is measured using 360 nm excitation and 615 nm and 650 nm emission filters respectively. Time resolved parameters for Europium were 1000 μs integration time with a 200 μs delay. APC parameters are set at 150 μs integration time with a 50 μs delay. Fluorescent intensities measured for APC are modified by dividing by the Eu fluorescence (APC/Eu). This ratio is then used to determine the unknown cortisol concentration by interpolation using a cortisol standard curve fitted with a 4-parameter logistic equation. These concentrations are then used to determine compound activity by plotting concentration versus % inhibition, fitting with a 4-parameter curve and reporting the IC50.

[1] = molecular target: recombinant human 11β-HSD type 1 enzyme (Homo sapiens, UniProt P28845); test: 11β-HSD Type 1 Enzyme Assay (NADPH fluorescence); assay type: biochemical; settings: three hour incubation, read-out: Human 11-βHSD1 IC50
recombinant human 11β-HSD type 1 enzyme, sequence (P28845 whole entry): as above
Description: 11β-HSD Type 1 Enzyme Assay
Human 11β-HSD type 1 activity is measured by assaying NADPH production by fluorescence assay. Solid compounds are dissolved in DMSO to a concentration of 10 mM. Twenty microliters of each are then transferred to a column of a 96-well polypropylene Nunc plate where they are further diluted 50-fold followed by subsequent two-fold titration, ten times across the plate with additional DMSO using a Tecan Genesis 200 automated system. Plates are then transferred to a Tecan Freedom 200 system with an attached Tecan Temo 96-well head and an Ultra 384 plate reader. Reagents are supplied in 96-well polypropylene Nunc plates and are dispensed individually into black 96-well Molecular Devices High Efficiency assay plates (40 μL/well capacity) in the following fashion: 9 μL/well of substrate (2.22 mM NADP, 55.5 μM Cortisol, 10 mM Tris, 0.25% Prionex, 0.1% Triton X100), 3 μL/well of water to compound wells or 3 μL to control and standard wells, 6 μL/well recombinant human 11β-HSD type 1 enzyme, 2 μL/well of compound dilutions. […] Plates are then shaken once more for 15 seconds then placed into an Ultra 384 microplate reader (355EX/460EM) for detection of NADPH fluorescence.

## O=C(c1ccc(-c2cc(Cl)c(CN3CCC4(CCCCC4)C3=O)c(Cl)c2)cc1)N1CCC(C(F)(F)F)CC1 [Example 5, 2-[3,5-Dichloro-4′-(4-trifluoromethyl-piperidine-1-carbonyl)-biphenyl-4-ylmethyl]-2-aza-spiro[4.5]decan-1-one]
Cortisone conversion
  % Inhibition after 16 hours (dose of 10 (mg/kg)): 69.3%
11β-HSD1
  IC50: 0.047 µM

## O=C(c1ccc(-c2cc(Cl)c(CN3CCC4(CCCCC4)C3=O)c(Cl)c2)cc1)N1CCN(CCF)CC1 [Example 6, 2-{3,5-Dichloro-4′-[4-(2-fluoro-ethyl)-piperazine-1-carbonyl]-biphenyl-4-ylmethyl}-2-aza-spiro[4.5]decan-1-one]
[1]
  IC50: 0.888 µM
Cortisone conversion
  % Inhibition after 16 hours (dose of 10 (mg/kg)): 41.2%
11β-HSD1
  IC50: 0.0205 µM

## O=C1N(Cc2c(Cl)cc(-c3ccc(F)cc3)cc2Cl)CCC12CCc1n[nH]cc1C2 (stereo not shown) [Example 14]
[1]
  IC50: 0.552 µM
11β-HSD1
  IC50: 0.0215 µM

From patent US7968585B2, “Inhibitors of 11-beta-hydroxysteroid dehydrogenase 1” (Eli Lilly and Company, priority 2006, dated 2011)
